Laboratory results: the supplement of paper PMC8617591

What was measured:
[1] = tested on: Mycobacterium tuberculosis Erdman (autoluminescent); assay: FIC90 (Loewe) at 90% inhibition (log2); higher = more antagonistic
Protocol: (§1)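 DiaMOND equipotent two-drug combination dose responses against autoluminescent M. tuberculosis Erdman in 8 in vitro models. Read-out is OD600, or luminescence for the intracellular and dormancy models, normalised to untreated wells. Hill-fit Einf, AUC25 and GRinf are potency metrics; FIC50 and FIC90 are Loewe-additivity fractional inhibitory concentrations, given as log2 (negative = synergy). Replicates are averaged.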

[2] = tested on: Mycobacterium tuberculosis Erdman (autoluminescent); assay: FIC50 (Loewe) at 50% inhibition (log2); higher = more antagonistic
Protocol: as §1

[3] = tested on: Mycobacterium tuberculosis Erdman (autoluminescent); assay: Einf, fitted maximum growth inhibition of combination (fraction); higher = stronger maximal inhibition
Protocol: as §1

[4] = tested on: Mycobacterium tuberculosis Erdman (autoluminescent); assay: AUC25, normalised area under dose response up to IC25 (fraction (0-1)); higher = more potent at low dose
Protocol: as §1

[5] = tested on: Mycobacterium tuberculosis Erdman (autoluminescent); assay: GRinf, maximum normalised growth rate inhibition (unitless (-1 to 1)); higher = less effect (negative = killing)
Protocol: as §1

O=[N+]([O-])c1cn2c(n1)OC[C@@H](OCc1ccc(OC(F)(F)F)cc1)C2 [pretomanid] + CO[C@H]1/C=C/O[C@@]2(C)Oc3c(C)c(O)c4c(O)c(c(/C=N/N5CCN(C6CCCC6)CC5)c(O)c4c3C2=O)NC(=O)/C(C)=C\C=C\[C@H](C)[C@H](O)[C@@H](C)[C@@H](O)[C@@H](C)[C@H](OC(C)=O)[C@@H]1C [rifapentine]
Conditions | AUC25, [4] | Einf, [3] | FIC50, [2] | FIC90, [1] | GRinf, [5]
in vitro model: acidic pH 5.7, time point: constant (~7 days, model-specific) | 0.101 | 0.925 | 0.285 | – | -0.447
in vitro model: acidic pH 5.7, time point: terminal (~4-5 doublings, model-specific) | 0.0525 | 0.991 | 0.359 | 0.243 | -0.276
in vitro model: intracellular J774, time point: constant = terminal | – | 0.991 | – | -0.454 | -0.347

Conditions | AUC25, [4] | Einf, [3] | FIC50, [2] | FIC90, [1] | GRinf, [5]
in vitro model: butyrate, time point: constant (~7 days, model-specific) | 0.0925 | 0.929 | 0.307 | 0.357 | -0.0285
in vitro model: butyrate, time point: terminal (~4-5 doublings, model-specific) | 0.0679 | 0.963 | 0.223 | 0.114 | -0.0133
in vitro model: cholesterol 0.05 mM, time point: constant (~7 days, model-specific) | 0.114 | 0.732 | 0.253 | – | -0.354
in vitro model: cholesterol 0.05 mM, time point: terminal (~4-5 doublings, model-specific) | 0.0965 | 0.93 | 0.285 | 1.63 | -0.257
in vitro model: cholesterol-high 0.2 mM, time point: constant (~7 days, model-specific) | 0.0774 | 0.911 | 0.634 | – | -0.247
in vitro model: cholesterol-high 0.2 mM, time point: terminal (~4-5 doublings, model-specific) | 0.0546 | 0.979 | 0.806 | 0.721 | -0.463
in vitro model: dormancy (butyrate + nitrate, low O2), time point: constant (~7 days, model-specific) | 0.0571 | 0.904 | 0.527 | 0.277 | 0.192
in vitro model: dormancy (butyrate + nitrate, low O2), time point: terminal (~4-5 doublings, model-specific) | 0.0438 | 0.983 | 0.383 | 0.448 | -0.148
in vitro model: standard 7H9 glycerol, time point: constant = terminal | 0.0697 | 0.928 | -0.158 | 0.519 | 0.0428
in vitro model: valerate, time point: constant (~7 days, model-specific) | 0.127 | 0.892 | 0.377 | – | -0.0483
in vitro model: valerate, time point: terminal (~4-5 doublings, model-specific) | 0.0738 | 0.954 | 0.21 | 0.484 | -0.107

NNC(=O)c1ccncc1 [isoniazid] + CC(=O)NC[C@H]1CN(c2ccc(N3CCOCC3)c(F)c2)C(=O)O1 [linezolid]
Conditions | AUC25, [4] | Einf, [3] | FIC50, [2] | FIC90, [1] | GRinf, [5]
in vitro model: acidic pH 5.7, time point: constant (~7 days, model-specific) | 0.0979 | 0.795 | 0.0411 | – | -0.178
in vitro model: acidic pH 5.7, time point: terminal (~4-5 doublings, model-specific) | 0.0773 | 0.963 | 0.877 | 0.0348 | -0.173
in vitro model: intracellular J774, time point: constant = terminal | – | 0.915 | – | 0.155 | -0.0635

Conditions | AUC25, [4] | Einf, [3] | FIC50, [2] | FIC90, [1] | GRinf, [5]
in vitro model: butyrate, time point: constant (~7 days, model-specific) | 0.0801 | 0.917 | 0.754 | 0.923 | 0.00442
in vitro model: butyrate, time point: terminal (~4-5 doublings, model-specific) | 0.0539 | 0.959 | 0.657 | 0.547 | 0.0109
in vitro model: cholesterol 0.05 mM, time point: constant (~7 days, model-specific) | 0.129 | 0.677 | 0.121 | – | -0.0433
in vitro model: cholesterol 0.05 mM, time point: terminal (~4-5 doublings, model-specific) | 0.14 | 0.945 | 4.49 | -0.681 | -0.23
in vitro model: cholesterol-high 0.2 mM, time point: constant (~7 days, model-specific) | 0.127 | 0.928 | -0.123 | 0.0406 | -0.371
in vitro model: cholesterol-high 0.2 mM, time point: terminal (~4-5 doublings, model-specific) | 0.119 | 1 | -0.0744 | 0.498 | -0.893
in vitro model: dormancy (butyrate + nitrate, low O2), time point: constant (~7 days, model-specific) | 0.0528 | 0.912 | 1.45 | 0.856 | 0.109
in vitro model: dormancy (butyrate + nitrate, low O2), time point: terminal (~4-5 doublings, model-specific) | 0.0354 | 0.989 | 1.06 | 0.558 | 0.00877
in vitro model: standard 7H9 glycerol, time point: constant = terminal | 0.0758 | 0.909 | 0.116 | 0.045 | 0.137
in vitro model: valerate, time point: constant (~7 days, model-specific) | 0.0661 | 0.818 | 0.548 | – | 0.0896
in vitro model: valerate, time point: terminal (~4-5 doublings, model-specific) | 0.0441 | 0.916 | 0.612 | 0.861 | 0.0931

CC[C@@H](CO)NCCN[C@@H](CC)CO [ethambutol] + CO[C@H]1/C=C/O[C@@]2(C)Oc3c(C)c(O)c4c(O)c(c(/C=N/N5CCN(C6CCCC6)CC5)c(O)c4c3C2=O)NC(=O)/C(C)=C\C=C\[C@H](C)[C@H](O)[C@@H](C)[C@@H](O)[C@@H](C)[C@H](OC(C)=O)[C@@H]1C [rifapentine]
Conditions | AUC25, [4] | Einf, [3] | FIC50, [2] | FIC90, [1] | GRinf, [5]
in vitro model: acidic pH 5.7, time point: constant (~7 days, model-specific) | 0.0932 | 0.893 | -0.302 | – | -0.289
in vitro model: acidic pH 5.7, time point: terminal (~4-5 doublings, model-specific) | 0.0462 | 0.985 | 0.0731 | -0.209 | -0.287
in vitro model: intracellular J774, time point: constant = terminal | – | 0.959 | – | -2.62 | -0.236

Conditions | AUC25, [4] | Einf, [3] | FIC50, [2] | FIC90, [1] | GRinf, [5]
in vitro model: butyrate, time point: constant (~7 days, model-specific) | 0.0627 | 0.91 | 0.244 | – | 0.0321
in vitro model: butyrate, time point: terminal (~4-5 doublings, model-specific) | 0.0478 | 0.959 | 0.226 | -0.659 | 0.0099
in vitro model: cholesterol 0.05 mM, time point: constant (~7 days, model-specific) | 0.118 | 0.694 | 0.509 | – | -0.191
in vitro model: cholesterol 0.05 mM, time point: terminal (~4-5 doublings, model-specific) | 0.0857 | 0.889 | 0.404 | – | -0.163
in vitro model: cholesterol-high 0.2 mM, time point: constant (~7 days, model-specific) | 0.0262 | 0.944 | 0.734 | – | -0.482
in vitro model: cholesterol-high 0.2 mM, time point: terminal (~4-5 doublings, model-specific) | 0.0335 | 1 | 0.916 | 0.787 | -0.739
in vitro model: dormancy (butyrate + nitrate, low O2), time point: constant (~7 days, model-specific) | 0.103 | 0.855 | 0.28 | – | 0.366
in vitro model: dormancy (butyrate + nitrate, low O2), time point: terminal (~4-5 doublings, model-specific) | 0.119 | 0.99 | 0.137 | 0.579 | -0.485
in vitro model: standard 7H9 glycerol, time point: constant = terminal | 0.0363 | 0.939 | 0.0721 | -0.243 | -0.0574
in vitro model: valerate, time point: constant (~7 days, model-specific) | 0.0721 | 0.874 | 0.0991 | – | 0.0371
in vitro model: valerate, time point: terminal (~4-5 doublings, model-specific) | 0.034 | 0.935 | 0.275 | -0.509 | 0.0428
